Experimental data taken from ChEMBL document CHEMBL3638619, “Oxazole and thiazole compounds as KSP inhibitors” (2014).

Biological target: T1, Kinesin-like protein KIF11 (Homo sapiens, UniProt P52732)
T1 sequence (P52732 whole entry): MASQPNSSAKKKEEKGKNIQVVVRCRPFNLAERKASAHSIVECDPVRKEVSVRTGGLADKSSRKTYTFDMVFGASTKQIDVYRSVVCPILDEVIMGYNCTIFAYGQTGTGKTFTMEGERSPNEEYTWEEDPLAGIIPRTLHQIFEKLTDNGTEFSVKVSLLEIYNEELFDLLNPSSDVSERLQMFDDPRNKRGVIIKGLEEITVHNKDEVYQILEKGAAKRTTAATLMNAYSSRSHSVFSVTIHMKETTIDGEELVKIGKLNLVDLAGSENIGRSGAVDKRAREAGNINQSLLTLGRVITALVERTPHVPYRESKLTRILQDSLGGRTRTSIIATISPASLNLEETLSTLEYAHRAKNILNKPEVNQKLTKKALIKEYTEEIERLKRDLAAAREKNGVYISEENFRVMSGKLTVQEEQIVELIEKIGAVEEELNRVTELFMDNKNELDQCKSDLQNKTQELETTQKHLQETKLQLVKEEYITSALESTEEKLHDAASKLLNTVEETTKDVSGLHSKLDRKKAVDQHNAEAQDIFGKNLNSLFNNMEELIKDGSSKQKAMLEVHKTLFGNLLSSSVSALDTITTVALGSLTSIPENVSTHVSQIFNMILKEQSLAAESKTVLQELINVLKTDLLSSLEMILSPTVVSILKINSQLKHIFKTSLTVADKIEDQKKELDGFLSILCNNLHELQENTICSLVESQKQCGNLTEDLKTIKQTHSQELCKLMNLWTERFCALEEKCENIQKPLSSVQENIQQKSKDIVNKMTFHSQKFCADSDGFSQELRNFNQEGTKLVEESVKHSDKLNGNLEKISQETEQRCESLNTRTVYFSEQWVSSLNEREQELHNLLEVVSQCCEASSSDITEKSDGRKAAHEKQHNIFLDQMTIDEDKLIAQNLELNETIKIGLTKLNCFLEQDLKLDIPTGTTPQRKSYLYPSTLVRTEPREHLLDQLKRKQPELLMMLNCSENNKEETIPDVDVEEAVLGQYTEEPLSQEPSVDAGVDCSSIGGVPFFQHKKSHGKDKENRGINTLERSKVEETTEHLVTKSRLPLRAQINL
Assay: In Vitro Assay: This example provides a representative in vitro assay for determining KSP activity in vitro. Purified microtubules obtained from bovine brain were purchased from Cytoskeleton Inc. (Denver, Colo., USA). The motor domain of human KSP (Eg 5, KNSL1) was cloned, expressed, and purified to greater than 95% homogeneity. Biomol Green was purchased from Affinity Research Products Ltd. (Matford Court, Exeter, Devon, United Kingdom). Microtubules and KSP motor protein (i.e., the KSP motor domain) were diluted in assay buffer (20 mM Tris-HCl (pH 7.5), 1 mM MgCl2, 10 mM DTT and 0.25 mg/mL BSA) to a final concentration of 35 μg/mL microtubules and 45 nM KSP. The microtubule/KSP mixture was then pre-incubated at 37 C. for 10 min to promote the binding of KSP to microtubules.

IC50: 0.216 µM
SMILES: C[C@H](O)C(=O)N(CC[C@H](N)CF)[C@H](c1nc(-c2cc(F)ccc2F)sc1Cc1ccccc1)C(C)(C)C
